Data as given in EPA's CvTdb concentration-time database.

Tests used:
Rat [1] = assay: concentration in brain after dosing; conditions: 2 h; dosed: 2-Methyltetrahydrofuran; 40 mg/kg; iv; Male; Harlan Sprague Dawley
Rat [2] = assay: concentration in plasma after dosing; conditions: 1.5 h; dosed: 2-Methyltetrahydrofuran; 40 mg/kg; iv; Male; Harlan Sprague Dawley
Rat [3] = assay: concentration in brain after dosing; conditions: 0.75 h; dosed: 2-Methyltetrahydrofuran; 40 mg/kg; iv; Male; Harlan Sprague Dawley
Rat [4] = assay: concentration in brain after dosing; conditions: 0.75 h; dosed: 2-Methyltetrahydrofuran; 40 mg/kg; iv; Male; Harlan Sprague Dawley; remark: listed apart in the source
Rat [5] = assay: concentration in plasma after dosing; conditions: 0.2 h; dosed: 2-Methyltetrahydrofuran; 40 mg/kg; iv; Male; Harlan Sprague Dawley
Rat [6] = assay: concentration in plasma after dosing; conditions: 4 h; dosed: 2-Methyltetrahydrofuran; 40 mg/kg; iv; Male; Harlan Sprague Dawley
Rat [7] = assay: concentration in brain after dosing; conditions: 2 h; dosed: 2-Methyltetrahydrofuran; 40 mg/kg; iv; Female; Harlan Sprague Dawley
Rat [8] = assay: concentration in kidney after dosing; conditions: 1 h; dosed: Perfluorohexanoic Acid; 80 mg/kg; oral; Male; Harlan Sprague Dawley
Rat [9] = assay: concentration in plasma after dosing; conditions: 1 h; dosed: Perfluorohexanoic Acid; 40 mg/kg; iv; Female; Harlan Sprague-Dawley
Rat [10] = assay: concentration in liver after dosing; conditions: 6 h; dosed: Perfluorohexanoic Acid; 80 mg/kg; oral; Female; Harlan Sprague Dawley
Rat [11] = assay: concentration in plasma after dosing; conditions: 0.5 h; dosed: Perfluorohexanoic Acid; 80 mg/kg; oral; Male; Harlan Sprague Dawley
Rat [12] = assay: concentration in kidney after dosing; conditions: 6 h; dosed: Perfluorohexanoic Acid; 80 mg/kg; oral; Male; Harlan Sprague Dawley
Rat [13] = assay: concentration in brain after dosing; conditions: 0.5 h; dosed: Perfluorohexanoic Acid; 80 mg/kg; oral; Male; Harlan Sprague Dawley
Rat [14] = assay: concentration in plasma after dosing; conditions: 1.5 h; dosed: Perfluorohexanoic Acid; 40 mg/kg; iv; Male; F344
Rat [15] = assay: concentration in plasma after dosing; conditions: 0.25 h; dosed: Perfluorohexanoic Acid; 40 mg/kg; iv; Male; F344
Rat [16] = assay: concentration in plasma after dosing; conditions: 0.25 h; dosed: Gemfibrozil; 4.29 mg/kg; oral; Male; Sprague-Dawley
Rat [17] = assay: concentration in plasma after dosing; conditions: 10 h; dosed: Gemfibrozil; 4.29 mg/kg; oral; Male; Sprague-Dawley
Rat [18] = assay: concentration in plasma after dosing; conditions: 1848 h; dosed: Perfluorooctane Sulfonate; 2 mg/kg; oral; Female; Harlan Sprague Dawley
Rat [19] = assay: concentration in brain after dosing; conditions: 864 h; dosed: Perfluorooctane Sulfonate; 20 mg/kg; oral; Male; Harlan Sprague Dawley
Rat [20] = assay: concentration in plasma after dosing; conditions: dosed: Perfluorooctane Sulfonate, 2 mg/kg, iv, Female, F344
Rat [21] = assay: concentration in liver after dosing; conditions: 6 h; dosed: Perfluorooctane Sulfonate; 2 mg/kg; oral; Female; Harlan Sprague Dawley
Rat [22] = assay: concentration in plasma after dosing; conditions: dosed: Perfluorooctane Sulfonate, 2 mg/kg, oral, Female, Harlan Sprague Dawley
Rat [23] = assay: concentration in plasma after dosing; conditions: dosed: Perfluorooctane Sulfonate, 2 mg/kg, iv, Female, F344; remark: listed apart in the source
Rat [24] = assay: concentration in kidney after dosing; conditions: 1848 h; dosed: Perfluorooctane Sulfonate; 2 mg/kg; oral; Female; Harlan Sprague Dawley
Rat [25] = assay: concentration in kidney after dosing; conditions: 864 h; dosed: Perfluorooctane Sulfonate; 20 mg/kg; oral; Male; Harlan Sprague Dawley
Rat [26] = assay: concentration in liver after dosing; conditions: 24 h; dosed: Perfluorooctane Sulfonate; 2 mg/kg; oral; Female; Harlan Sprague Dawley
Rat [27] = assay: concentration in kidney after dosing; conditions: 6 h; dosed: Perfluorooctane Sulfonate; 2 mg/kg; oral; Female; Harlan Sprague Dawley
Rat [28] = assay: concentration in kidney after dosing; conditions: 24 h; dosed: Perfluorooctane Sulfonate; 20 mg/kg; oral; Female; F344
Rat [29] = assay: concentration in brain after dosing; conditions: 24 h; dosed: Perfluorooctane Sulfonate; 2 mg/kg; oral; Female; Harlan Sprague Dawley
Rat [30] = assay: concentration in liver after dosing; conditions: 1 h; dosed: Fluorotelomer alcohol 8+2; 80 mg/kg; oral; Female; Harlan Sprague Dawley
Rat [31] = assay: concentration in liver after dosing; conditions: 12 h; dosed: Fluorotelomer alcohol 8+2; 80 mg/kg; oral; Female; Harlan Sprague Dawley
Rat [32] = assay: concentration in kidney after dosing; conditions: 0.5 h; dosed: Fluorotelomer alcohol 8+2; 80 mg/kg; oral; Female; Harlan Sprague Dawley
Rat [33] = assay: concentration in plasma after dosing; conditions: 192 h; dosed: 678-39-7; 12 mg/kg; iv; Male; F344
Rat [34] = assay: concentration in liver after dosing; conditions: 3 h; dosed: Fluorotelomer alcohol 8+2; 80 mg/kg; oral; Female; Harlan Sprague Dawley
Rat [35] = assay: concentration in plasma after dosing; conditions: dosed: 678-39-7, 12 mg/kg, iv, Male, F344
Rat [36] = assay: concentration in liver after dosing; conditions: 0.5 h; dosed: Fluorotelomer alcohol 8+2; 24 mg/kg; oral; Male; Harlan Sprague Dawley
Rat [37] = assay: concentration in plasma after dosing; conditions: 192 h; dosed: Fluorotelomer alcohol 8+2; 24 mg/kg; oral; Male; Harlan Sprague Dawley
Rat [38] = assay: concentration in brain after dosing; conditions: 12 h; dosed: Fluorotelomer alcohol 8+2; 24 mg/kg; oral; Male; Harlan Sprague Dawley
Rat [39] = assay: concentration in brain after dosing; conditions: 1 h; dosed: Fluorotelomer alcohol 8+2; 24 mg/kg; oral; Male; Harlan Sprague Dawley

CC1CCCO1 (stereo not given) [2-Methyltetrahydrofuran]
Conditions	concentration in brain [ng/mL]	concentration in plasma [ng/mL]
Rat [1]	7820	–
Rat [2]	–	19300
Rat [3]	11300	–
Rat [4]	14400	–
Rat [5]	–	36100
Rat [6]	–	312
Rat [7]	9940	–

O=C(O)C(F)(F)C(F)(F)C(F)(F)C(F)(F)C(F)(F)F [Perfluorohexanoic Acid]
Conditions	concentration in brain [ng/g]	concentration in kidney [ng/g]	concentration in liver [ng/g]	concentration in plasma [ng/mL]
Rat [8]	–	86000	–	–
Rat [9]	–	–	–	1240
Rat [10]	–	–	820	–
Rat [11]	–	–	–	151000
Rat [12]	–	16900	–	–
Rat [13]	2500	–	–	–
Rat [14]	–	–	–	320
Rat [15]	–	–	–	6480

Cc1ccc(C)c(OCCCC(C)(C)C(=O)O)c1 [Gemfibrozil]
Conditions	concentration in plasma [ng/mL]
Rat [16]	1640
Rat [17]	405

O=S(=O)([O-])C(F)(F)C(F)(F)C(F)(F)C(F)(F)C(F)(F)C(F)(F)C(F)(F)C(F)(F)F [Perfluorooctane Sulfonate]
Conditions	concentration in brain [ng/g]	concentration in kidney [ng/g]	concentration in liver [ng/g]	concentration in plasma [ng/mL]
Rat [18]	–	–	–	966
Rat [19]	2330	–	–	–
Rat [21]	–	–	24500	–
Rat [24]	–	2040	–	–
Rat [25]	–	19300	–	–
Rat [26]	–	–	29400	–
Rat [27]	–	4220	–	–
Rat [28]	–	132000	–	–
Rat [29]	553	–	–	–

Conditions	concentration in plasma [ng/mL]
Rat [20], 6 h	4910
Rat [20], 528 h	2900
Rat [20], 3216 h	277
Rat [22], 12 h	6280
Rat [22], 528 h	2270
Rat [23], 5 min	5590
Rat [23], 192 h	4170
Rat [23], 1704 h	940

O=C(O)CCC(F)(F)C(F)(F)C(F)(F)C(F)(F)C(F)(F)C(F)(F)C(F)(F)F [Fluorotelomer acid 7+3]
Conditions	concentration in brain [ng/g]	concentration in kidney [ng/g]	concentration in liver [ng/g]	concentration in plasma [ng/mL]
Rat [30]	–	–	1620	–
Rat [31]	–	–	5690	–
Rat [32]	–	435	–	–
Rat [33]	–	–	–	8.6
Rat [34]	–	–	10700	–
Rat [36]	–	–	347	–
Rat [37]	–	–	–	40.8
Rat [38]	129	–	–	–
Rat [39]	160	–	–	–

Rat [35]
Conditions	concentration in plasma [ng/mL]
0.75 h	334
12 h	90
